Columns and labels:
[1] = tested on: dystrophin; experiment: Immunohistochemical staining and quantification of dystrophin in mdx mice after single IV injection; assay type: in vivo; details: heart; mdx mice, single 12.5 mg/kg IV, 2 weeks; relative to laminin, normalised to C57BL10
Excerpt: (§1) Given the potency of Pip5e-PMO in heart tissue, the aim of altering the sequence of the hydrophobic core (whilst maintaining the 5-aa length) was to identify peptides that might be more efficient at lower doses. These modifications included inversion of the hydrophobic region (Pip6a), substitution of tyrosine by isoleucine (Pip6b), substitution of glutamine in the Pip6a sequence by displacement of the arginine immediately flanking the core in the first arginine-rich flanking region (Pip6e), and a scrambled hydrophobic core sequence (Pip6f). All Pip6 peptide-PMO conjugates were administered to mdx mice as single 12.5 mg/kg intravenous injections via the tail vein and tissues were harvested 2 weeks later and assessed for activity at both RNA and protein levels.
Immunohistochemical staining quantification (FIGS. 34a, b) was performed as previously described [Malerba, A., et al., Chronic systemic therapy with low-dose morpholino oligomers ameliorates the pathology and normalizes locomotor behavior in mdx mice. Mol Ther, 2011. 19(2): p. 345-54; Arechavala-Gomeza, V., et al., Immunohistological intensity measurements as a tool to assess sarcolemma-associated protein expression. Neuropathol Appl Neurobiol, 2010. 36(4): p. 265-74.] and was achieved by taking 4 representative frames of the dystrophin staining and correlating this with laminin staining for each section (n=3) of the quadriceps, diaphragm and heart for each peptide-PMO treatment. Untreated mdx and treated mdx mice were normalised to C57BL10 mice. This method allows comparison of the staining intensity of dystrophin at the sarcolemma relative to laminin for each treatment group. Intensity ratios are normalised to C57BL10 samples and each region of interest at the sarcolemma (120 regions for each treatment group) is plotted on a scatter graph. […]
Transverse sections of tissue samples were cut (8 μm thick) for the examination of dystrophin expression. For dystrophin visualisation and quantification, sections were co-stained with rabbit-anti-dystrophin (Abcam) and rat anti-laminin (Sigma), and detected by goat-anti-rabbit IgG Alexa 594 and goat-anti-rat IgG 488 secondary antibodies respectively (Invitrogen). […] Quantitative immunohistochemistry was performed as previously described [Malerba, A., et al., Chronic systemic therapy with low-dose morpholino oligomers ameliorates the pathology and normalizes locomotor behavior in mdx mice. […] For quantification, 4 representative frames of the dystrophin and correlating laminin were taken for each section (n=3) of the quadriceps, diaphragm and heart for each treatment. […] The minimum and maximum fluorescence intensity for 120 regions were recorded for each treatment. […]

[2] = tested on: dystrophin exon 23; experiment: RT-PCR and quantitative real time PCR of exon skipping in mdx mouse tissues; assay type: in vivo, mdx mice; details: diaphragm; single 12.5 mg/kg IV, 2 weeks
Excerpt: as §1
The RTPCR representative images (FIG. 34d) illustrate high exon skipping efficiency in all tissues analysed. This is better shown by Real Time PCR (qRT-PCR) results for the quadriceps, diaphragm and heart (FIG. 34c). The delta 23 transcript is normalised against ‘total dystrophin’ for each muscle group (n=3). […] Western blots (FIG. 34e) were performed on the tissues of each mouse and were quantified against a 50% and 10% C57BL10 control.
Four and a half month old to 5½ month old mdx mice were used in these experiments (n=3). […]

[3] = Serum stability of Pip-PMO conjugates in 100% mouse serum (HPLC, MALDI-TOF); assay type: in vitro ADME; details: 37° C.
Description: Serum stability may be measured by adding an aliquot of Pip-PMO (10 nmoles) to 100% mouse serum (100 μL) and incubating at 37° C. for 120 or 240 min. Each reaction is diluted with IM guanidinium-HCl solution (300 μL) and ice-cold acetonitrile (600 μL). Samples are mixed and kept at −20° C., and the precipitated serum proteins separated by centrifugation (13000 rpm, 5 min). After centrifugation, the supernatant is collected, lyophilized and the residue dissolved in water for analysis for peptide degradation by MALDI-TOF mass spectrometry and by reversed phase HPLC. HPLC conditions are: Column, C18 reversed-phase (250×4.6 mm); Solvent A, 0.1% TFA, Solvent B, 90% Acetonitrile, 10% solvent A; Gradient, 10%-50% solvent B in 25 minutes.
Serum stability was measured by adding an aliquot of Pip-PMO (10 nmoles) to 100% mouse serum (100 μL) and incubating at 37° C. for 120 or 240 min. Each reaction was diluted with IM guanidinium-HCl solution (300 μL) and ice-cold acetonitrile (600 μL). Samples were mixed and kept at −20° C., and the precipitated serum proteins separated by centrifugation (13000 rpm, 5 min). After centrifugation, the supernatant was collected, lyophilized and the residue dissolved in water for analysis for peptide degradation by MALDI-TOF mass spectrometry and by reversed phase HPLC. […]

[4] = tested on: dystrophin; details: single 25 mg/kg administration; cited from earlier work

In the case of RXRRBRRXRILFQYRXRBRXRBC [Pip5e-PMO], the “percent recovery score (% RS), dystrophin immunostaining” value [1] is reported as 17.32%, the “Δ23 exon skipping by qRT-PCR” value [2] is reported as “highest exon skipping” and the “stability in 100% mouse serum” value ([3]; 120 min (2 h), HPLC and MALDI-TOF) is reported as “unchanged Pip-PMO conjugate”. The “levels of PMO conjugated to fragments of peptide” value ([3]; 100% mouse serum, 120 minutes) was “very similar to that for (RXRRBR)2XB-PMO” and the “dystrophin protein restoration in all muscle types, including heart” value [4] was “high levels”.

From patent US9302014B2, “Cell-penetrating peptides having a central hydrophobic domain” (Medical Research Council, priority 2011, dated 2016)
